The values that follow come from patent US6110491A, “Compound-loaded liposomes and methods for their preparation” (Hermes Biosciences, Inc., priority 1997, dated 2000).

The nature of series [1]: Doxorubicin loading into liposomes containing ammonium polyacrylate or sulfate in absence of ammonium ion gradient (Example 7). It counts as physicochemical. Particulars: for Doxorubicin absorbed by liposomes: no ammonium ion gradient; for Doxorubicin incorporation into liposomes: outer Cl-. As to the method: Liposomes with entrapped ammonium sulfate or ammonium polyacrylate were prepared from the lipid mixture of hydrogenated soybean phosphatidylcholine (Avanti PolarLipids, Ala., U.S.A.), cholesterol (Calbiochem, USA), and poly(ethylene glycol) (Mol. weight 2,000) derivative of distearoyl phosphatidyl ethanolamine (PEG-DSPE) (Sygena, Switzerland), at the molar ratio 60:40:6, by lipid film hydration, repetitive freezing-thawing at 60° C. (6 times) and extrusion through two stacked polycarbonate track-etched membranes with the pore size 100 nm at 60° C. (12 times). The bulk aqueous phase of the liposomes was exchanged by gel-filtration for the outer buffer, 0.2 M ammonium chloride, adjusted (when necessary) to pH 7.3 and buffered with 10 mM sodium hydroxyethylpiperazino-ethane sulfonate (HEPES). The inner (entrapped) solution had ammonium ion concentration of 200 milli-eqivalent/L, i.e. the same as the outer buffer (no ammonium ion gradient), and the anion composition and pH as indicated below. Polyacrylic acid with mol. weight of 2,000 (Aldrich Chemical Co.) was used. Doxorubicin was added to the liposomes at 2 mg for each 6-8 micro-mol of phospholipid, and incubated with shaking at 60° C., i.e. above the transition temperature of the lipid bilayer, for various times as specified below. […] Doxorubicin-loaded liposomes were separated from the free drug by gel-chromatography on Sephadex G-75, eluted with the outer buffer. Liposomal doxorubicin was assayed by spectrophotometry at 485 nm, phospholipid was quantitated by molybdate method after acid digestion of the liposomes.

Series [2] is described as follows: Doxorubicin loading into liposomes with entrapped anions essentially free from transmembrane pH or ammonium ion gradients (Example 8). Particulars: 36° C., 12 hours. It counts as physicochemical. As for the experimental part:
Aqueous solutions containing ammonium salts of hydrochloric, nitric, methanesulfonic, L(+)-tartaric, citric, sulfuric, phosphoric, diethylenetriamine pentaacetic (DTPA), or polyacrylic (Mol. weight. 2,000) acids were prepared by titration of the respective acids in water with the standard aqueous solution of ammonium hydroxide to achieve pH 7.3±0.05,followed by volume adjustment to achieve 0.2 equivalent/L of ammonium ion, and, if necessary, by addition of dry sucrose to achieve osmolarity of 377 mmol/kg. (These solutions are hereinafter referred to as Inner Buffers). All solutions additionally contained 10 mM hydroxyethylpiperazinoethane sulfonic acid (HEPES) to stabilize the pH at titration endpoint. To afford determination of intraliposomal pH, a fluorescence indicator 8-hydroxypyrene trisulfonate was added to the solutions to the final concentration of 0.2 mM. Liposomes containing entrapped ammonium salt solutions as above were prepared from egg phosphatidyl choline, cholesterol, and PEG-DSPE as described in the Example 7, except that lipid hydration and extrusion were carried out at room temperature. The bulk aqueous phases of liposome preparations were exchanged by gel-filtration for an aqueous solution (Outer buffer) containing 0.2 M ammonium chloride, 10 mM HEPES, pH 7.3, osmolarity 377 mmol/kg, to obtain liposome preparations substantially without transmembrane ammonium-ion gradients. Loading of doxorubicin was performed as in Example 7, except that it was at 36° C. for 12 hours. Intraliposomal pH was determined using HPTS fluorescence method (Straubinger, et al., 1990) prior to drug loading, and indicated essentially no inside-outside pH gradient (less than 0.2 pH units), compared with the gradient of several pH units typical for ammonium ion gradient liposomes (Haran, et al., 1993). The following results were obtained (nd, not determined)

The structures appear in SMILES notation.

Take `COc1cccc2c1C(=O)c1c(O)c3c(c(O)c1C2=O)C[C@@](O)(C(=O)CO)C[C@@H]3O[C@H]1C[C@H](N)[C@H](O)[C@H](C)O1` [doxorubicin]: the “Doxorubicin absorbed by liposomes” value is on record as “considerable amounts” in series [1] (ammonium polyacrylate liposomes) and “very small amounts” in series [1] (ammonium sulfate liposomes, 60° C.). Moreover, the Doxorubicin precipitate formation result in series [1] (in the presence of polyacrylate anion, 60° C.) is on record as “visibly precipitated”; in series [1] (in the presence of sulfate anion, 60° C.), “did not form a detectable precipitate”. In addition, the “Doxorubicin incorporation into liposomes” value in series [1] (inner SO4^2-, pH 7.3, 1 hour, 60° C.) is given as 6.1 ± 0.8 mg of drug/mmol of liposome ph; in series [1] (inner SO4^2-, pH 7.3, 16 hours, 60° C.) it was 5.1 ± 0.2 mg of drug/mmol of liposome ph; in series [1] (inner polyacrylate, pH 5.2, 1 hour, 60° C.) it was 59.7 ± 2.5 mg of drug/mmol of liposome ph; in series [1] (inner polyacrylate, pH 7.3, 1 hour, 60° C.), 91.0 ± 2.8 mg of drug/mmol of liposome ph; in series [2] (inner buffer anion DTPA), 40.8 mg of drug/mmol of liposome ph; in series [2] (inner buffer anion L(+)-tartrate), 27.5 mg of drug/mmol of liposome ph. The “Doxorubicin incorporation into liposomes” value in series [2] (inner buffer anion chloride) is 16.8 mg of drug/mmol of liposome ph; in series [2] (inner buffer anion citrate), 97.9 mg of drug/mmol of liposome ph; in series [2] (inner buffer anion methanesulfonate) it was 17.1 mg of drug/mmol of liposome ph; in series [2] (inner buffer anion nitrate), 12.4 mg of drug/mmol of liposome ph; in series [2] (inner buffer anion phosphate), 68.1 mg of drug/mmol of liposome ph; in series [2] (inner buffer anion polyacrylate) it was 142.7 mg of drug/mmol of liposome ph. In addition, the “Doxorubicin incorporation into liposomes” value in series [2] (inner buffer anion sulfate) is recorded as 33.5 mg of drug/mmol of liposome ph.
